The source of these data is US20250136702A1, “HUMAN LIFR ANTIGEN BINDING PROTEIN, PREPARATION METHOD THEREFOR, AND APPLICATION THEREOF” (NONA BIOSCIENCES (SUZHOU) CO., LTD., priority 2020, published 2025).

This assay relates to Human pancreatic cancer Capan-2 cells. As to the kind of experiment: Pharmacodynamics in Capan-2 tumor mouse model. The format is in vivo, Balb/c nude mice. The conditions noted are these: Capan-2 model, TIW × 9 doses. The procedure: In this experiment, Capan-2 tumor mouse model was used to study the anti-tumor activity of anti-human LIFR antibody. The pharmacodynamics of PR300516 antibody administered alone (5 mg/kg and 15 mg/kg) in Capan-2 mouse model were studied. Human pancreatic cancer Capan-2 cells (ATCC cell bank) were subcutaneously inoculated into female Balb/c nude mice (charles river). The treatment method of the antibody group is: on the 5th day, the 9th day, the 12th day, the 16th day, the 19th day and the 23rd day after the tumor cell inoculation, the mice of each group are injected with the corresponding antibodies in the intraperitoneal cavity. The treatment method of the small molecule inhibitor group is: EC359 small molecule inhibitors were administered orally to mice on days 5, 7, 9, 12, 14, 16, 19, 21 and 23 after tumor cell inoculation. The tumor volume was measured on the 5th, 9th, 12th, 16th, 19th and 23rd days after tumor cell inoculation, and then the mice were euthanized.

In the case of `C#CC(F)(F)[C@]1(O)CC[C@H]2[C@@H]3CCC4=CC(=O)CCC4=C3[C@@H](c3ccc(-c4c(C)cc(C)cc4C)cc3)C[C@@]21C` [EC359, reference compound], the “TGI (%)” value is, setting by setting: (5 mg/kg oral) 40.99%; (15 mg/kg oral) 47.85%.
